Structures are written as SMILES. Like-named read-outs stand apart in the source and are kept apart here.

Format in all cases: cell-based
The target of assay [1] is T1, wild type mouse CFTR (Mus musculus, UniProt P26361).
T1 construct: expressed in transfected cells; host or cells: mouse mIMCD3_wt cells (ATCC CRL-2123)
Nature of the assay: YFP halide (YHA) assay in mIMCD3_wt cells, Cpd 1 with Metformin. The procedure:
To evaluate the ability of a test compound combination to inhibit wild type CFTR using tubular kidney cells, a YFP halide assay using mIMCD3_wt cells (ATCC® CRL-2123) transfected with wild type mouse CFTR was developed (Galietta, Jayaraman, and Verkman 2001). Cells were incubated during 24 h with a dose range of compound 1 or a combination of a dose range of compound 1 with increasing dose of Metformin Immediately before measurement, forskolin together with a dose range of compound 1 combined or not with increasing dose of Metformin was added the wild type CFTR expressing mIMCD3 cells in order to fully activate the available CFTR at the plasma membrane. Inhibition of the channel by test compounds was plotted to obtain IC50s.
Mouse mIMCD3_wt cells were transfected with 20 ng of wild type CFTR and 80 ng of plasmid encoding YFP (H148Q/I152L/F47L) using jetPEI (Polyplus transfection). Directly after transfection, cells were seeded in black 96-well plates coated with Poly-D-lysine at a density of 40,000 cells per well. The next day, cells were treated with compounds for 24 h. After this incubation period, cells were washed twice with DPBS with Ca^2+ and Mg^2+. Subsequently, cells were treated with 10 μM forskolin and the desired concentrations of compounds in a volume of 40 μl and incubated at room temperature for 15 min, a time point optimized in previous experiments resulting in a good window (positive control/negative control>2) and signal to background ratio. YFP fluorescence was measured using an EnVision plate reader (PerkinElmer). […] The excitation wavelength was 485 nm and the emission wavelength 530 nm.
Concentration-response experiments were fitted using a 4 parameter hill function of the form Response=Bottom+(Top−Bottom)/(1+(EC50/concentration)^HillSlope)) to determine EC50 values.

The target in assay [2] is T2, wild type human CFTR (Homo sapiens, UniProt P13569).
T2 construct: expressed in transfected cells; host or cells: HEK293
T2 sequence (P13569 whole entry): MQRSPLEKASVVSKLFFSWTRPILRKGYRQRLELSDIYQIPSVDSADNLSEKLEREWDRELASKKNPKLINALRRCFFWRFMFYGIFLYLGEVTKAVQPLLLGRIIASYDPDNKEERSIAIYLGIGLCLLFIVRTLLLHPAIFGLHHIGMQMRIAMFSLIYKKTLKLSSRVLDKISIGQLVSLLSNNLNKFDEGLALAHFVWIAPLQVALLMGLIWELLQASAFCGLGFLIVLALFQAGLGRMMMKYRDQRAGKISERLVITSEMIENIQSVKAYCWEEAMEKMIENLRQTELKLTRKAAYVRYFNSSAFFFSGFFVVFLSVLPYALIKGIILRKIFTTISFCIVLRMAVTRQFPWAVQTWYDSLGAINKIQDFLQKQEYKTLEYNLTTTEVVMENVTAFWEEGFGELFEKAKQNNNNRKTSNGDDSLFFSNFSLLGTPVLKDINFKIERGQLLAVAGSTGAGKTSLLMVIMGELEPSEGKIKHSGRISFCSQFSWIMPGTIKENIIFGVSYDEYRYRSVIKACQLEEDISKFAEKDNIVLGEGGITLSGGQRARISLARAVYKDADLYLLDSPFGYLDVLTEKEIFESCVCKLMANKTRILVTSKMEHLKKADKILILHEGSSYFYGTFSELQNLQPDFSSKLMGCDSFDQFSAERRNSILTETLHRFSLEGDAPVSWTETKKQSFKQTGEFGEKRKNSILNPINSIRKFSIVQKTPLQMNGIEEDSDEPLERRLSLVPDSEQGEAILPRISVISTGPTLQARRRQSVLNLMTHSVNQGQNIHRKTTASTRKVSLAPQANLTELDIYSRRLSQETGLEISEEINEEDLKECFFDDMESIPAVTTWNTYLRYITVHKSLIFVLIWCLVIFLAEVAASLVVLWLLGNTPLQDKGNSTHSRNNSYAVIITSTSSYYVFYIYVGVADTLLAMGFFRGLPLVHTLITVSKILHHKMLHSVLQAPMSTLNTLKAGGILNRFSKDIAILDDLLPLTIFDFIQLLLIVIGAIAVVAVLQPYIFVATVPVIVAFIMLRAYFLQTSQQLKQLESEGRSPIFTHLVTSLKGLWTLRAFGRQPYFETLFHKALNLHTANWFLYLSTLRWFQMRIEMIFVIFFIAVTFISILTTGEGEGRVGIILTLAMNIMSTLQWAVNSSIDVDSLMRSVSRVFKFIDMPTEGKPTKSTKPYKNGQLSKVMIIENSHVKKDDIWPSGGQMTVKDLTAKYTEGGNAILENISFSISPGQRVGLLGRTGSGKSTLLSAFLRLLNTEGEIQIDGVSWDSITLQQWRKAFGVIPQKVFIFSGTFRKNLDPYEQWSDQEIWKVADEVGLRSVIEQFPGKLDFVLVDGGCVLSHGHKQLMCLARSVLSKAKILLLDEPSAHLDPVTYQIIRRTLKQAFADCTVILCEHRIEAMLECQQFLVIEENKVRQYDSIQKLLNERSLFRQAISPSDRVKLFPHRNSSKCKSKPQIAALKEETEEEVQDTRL
Nature of the assay: Yellow Fluorescent Protein (YFP) halide assay in wild type CFTR (HEK293 cells). The settings on record: HEK293 cells transfected with wild type human CFTR; 24 h incubation; 10 μM forskolin; read-out: EC50 of inhibition of WT CFTR. The procedure:
To evaluate the ability of a test compound to inhibit wild type CFTR, a YFP halide assay using HEK293 cells transfected with wild type human CFTR was developed. (Galietta, Jayaraman, and Verkman 2001) Cells were incubated during 24 h with a dose range of test compound and the resulting wild type CFTR activity was plotted to obtain the EC50.
Test compounds were also added together with forskolin to wild type CFTR expressing cells in order to fully active the available CFTR at the plasma membrane and determine accurately the inhibition of the channel activity.
HEK293 cells were transfected with 10 to 80 ng of wild type CFTR and 20 ng of plasmid encoding YFP (H148Q/I152L/F47L) using jetPEI (Polyplus transfection). Directly after transfection, cells were seeded in black 96-well plates coated with Poly-D-lysine at a density of 70,000 cells per well. The next day, cells were treated with corrector(s) for 24 h. After this incubation period, cells were washed twice with DPBS with Ca^2+ and Mg^2+. Subsequently, cells were treated with 10 μM forskolin and the desired concentration of potentiator in a volume of 40 μl and incubated at room temperature for 10 min, a time point optimized in previous experiments resulting in a good window (positive control/negative control >2) and signal to background ratio. YFP fluorescence was measured using an EnVision plate reader (PerkinElmer). […]

The target of assay [3] is T3, wt CFTR (CFTR channel) (Homo sapiens, UniProt P13569).
T3 construct: evaluate compounds on normal primary bronchial epithelial cells (HBE cells); endogenous in cells; host or cells: normal primary human bronchial epithelial (HBE) cells from donor lungs
T3 sequence (P13569 whole entry): as above
Nature of the assay: TECC assay on normal primary human bronchial epithelial (HBE) cells. As to conditions: 0.3 μM forskolin. The procedure:
The TECC assay is used to evaluate compounds on normal primary bronchial epithelial cells (HBE cells), which are closer to physiological conditions
Bronchial epithelial cells isolated from transplanted lungs from normal (wt CFTR) were isolated from lungs obtained from donors undergoing a planned transplantation. These primary cells were cultured directly on type IV collagen-coated polycarbonate Transwell supports with a diameter of 6.5 mm and pore size of 0.4 μm (Costar, #3397) for 18 to 25 days in air liquid (ali) interface essentially as previously described for TECC. (Fulcher et al. 2005)
Trans-epithelial clamp circuit (TECC) recordings were performed using the TECC instrument developed and sold by EP Design (Bertem, Belgium). During the recording, the epithelial cells were bathed in a NaCl-Ringer solution (120 mM NaCl, 20 mM HEPES, 1.2 mM CaCl2, 1.2 mM MgCl2, 0.8 mM KH2PO4, 0.8 mM K2HPO4, 5 mM glucose, pH 7.4) on both the basolateral (640 μl) and the apical side (160 μl) and kept at 37° C. Apical amiloride was used to inhibit the endogenous ENaC currents (100 μM) while forskolin (0.3 μM) was applied on both the apical and basolateral sides to stimulate CFTR. All triggers and compounds used during the experiment were first dissolved in DMSO to a 1000× concentrated solution, just prior to treatment a 10× stock was prepared in the NaCl-Ringer solution which was used for addition of the correct concentration of trigger and or compound during the experiment. Cells were treated with test compounds for 24 hours before recording and this treatment was repeated in the TECC buffer prior to the electrophysiological recording. Measurements were done during a 20-min timeframe with recordings every 2 min. The transepithelial potential (PD) and transepithelial resistance (Rt) were measured in an open circuit and transformed to Ieq using Ohm's law. The maximal increase in Ieq (Δ Ieq) was used as a measure for the increased CFTR activity.

T1 sequence (P26361 whole entry): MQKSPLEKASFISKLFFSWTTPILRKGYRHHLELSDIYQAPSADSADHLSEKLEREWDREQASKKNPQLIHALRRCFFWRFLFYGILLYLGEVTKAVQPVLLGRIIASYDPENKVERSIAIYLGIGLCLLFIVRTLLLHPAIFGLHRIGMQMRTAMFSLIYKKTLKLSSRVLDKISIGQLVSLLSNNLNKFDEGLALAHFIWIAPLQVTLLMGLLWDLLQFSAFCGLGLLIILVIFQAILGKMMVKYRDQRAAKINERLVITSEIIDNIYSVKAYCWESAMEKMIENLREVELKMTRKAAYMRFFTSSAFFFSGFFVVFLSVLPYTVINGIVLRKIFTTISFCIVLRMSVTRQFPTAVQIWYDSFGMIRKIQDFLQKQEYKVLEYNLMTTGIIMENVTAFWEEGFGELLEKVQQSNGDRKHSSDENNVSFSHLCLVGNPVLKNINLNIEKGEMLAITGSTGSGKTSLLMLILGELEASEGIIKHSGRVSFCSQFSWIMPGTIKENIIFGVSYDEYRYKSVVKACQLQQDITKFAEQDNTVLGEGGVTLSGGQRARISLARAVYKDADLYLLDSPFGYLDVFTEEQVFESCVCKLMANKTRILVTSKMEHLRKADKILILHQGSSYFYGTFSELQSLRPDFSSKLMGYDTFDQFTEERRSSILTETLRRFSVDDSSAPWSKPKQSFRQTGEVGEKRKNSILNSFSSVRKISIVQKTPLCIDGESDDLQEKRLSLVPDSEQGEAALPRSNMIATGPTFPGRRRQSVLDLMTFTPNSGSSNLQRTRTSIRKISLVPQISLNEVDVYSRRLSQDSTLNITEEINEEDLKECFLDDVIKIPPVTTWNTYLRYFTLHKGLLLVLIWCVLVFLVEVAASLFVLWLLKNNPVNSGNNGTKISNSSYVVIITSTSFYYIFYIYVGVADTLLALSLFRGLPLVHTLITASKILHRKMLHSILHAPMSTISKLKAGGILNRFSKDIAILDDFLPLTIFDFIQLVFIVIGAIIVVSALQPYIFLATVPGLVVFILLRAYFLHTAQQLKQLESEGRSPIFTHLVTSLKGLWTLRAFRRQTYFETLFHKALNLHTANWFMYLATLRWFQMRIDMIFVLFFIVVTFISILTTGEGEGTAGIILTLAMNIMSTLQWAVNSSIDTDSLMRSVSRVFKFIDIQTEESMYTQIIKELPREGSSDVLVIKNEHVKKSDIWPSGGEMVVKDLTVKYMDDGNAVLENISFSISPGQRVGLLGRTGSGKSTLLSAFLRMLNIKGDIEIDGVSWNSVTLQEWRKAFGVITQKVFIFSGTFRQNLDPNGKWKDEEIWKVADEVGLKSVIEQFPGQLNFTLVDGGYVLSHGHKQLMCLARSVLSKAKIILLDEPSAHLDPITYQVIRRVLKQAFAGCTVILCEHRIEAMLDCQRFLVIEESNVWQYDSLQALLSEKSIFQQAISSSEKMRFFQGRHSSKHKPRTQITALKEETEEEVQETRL

As for `COC1CCN(C2CCN(c3cc(C(=O)NS(=O)(=O)N(C)C)nc4c3c(C3CCC3)nn4-c3ccc(F)cc3)CC2)CC1` [Cpd 1], the EC50 in assay [1] (Compound 1 alone at 30 μM, mouse mIMCD3_wt cells, read-out: EC50 of inhibition of mouse CFTR activity) was 3.12 µM; in assay [2], 0.728 µM. The IC50 in assay [1] ([Metformin] 0 μM, mIMCD3_wt cells, read-out: IC50) was determined as 3.12 µM; in assay [1] ([Metformin] 20 μM, mIMCD3_wt cells, read-out: IC50) it was 3.67 µM; in assay [1] ([Metformin] 40 μM, mIMCD3_wt cells, read-out: IC50), 2.32 µM; in assay [1] ([Metformin] 80 μM, mIMCD3_wt cells, read-out: IC50), 3.79 µM; in assay [1] ([Metformin] 160 μM, mIMCD3_wt cells, read-out: IC50), 2.91 µM; in assay [1] ([Metformin] 310 μM, mIMCD3_wt cells, read-out: IC50) it was 1.91 µM. In addition, the IC50 was 1.77 µM in assay [1] ([Metformin] 630 μM, mIMCD3_wt cells, read-out: IC50); 1.82 µM in assay [1] ([Metformin] 1250 μM, mIMCD3_wt cells, read-out: IC50); 0.83 µM in assay [1] ([Metformin] 2500 μM, mIMCD3_wt cells, read-out: IC50); 0.92 µM in assay [1] (combined with 5 μM of Metformin, mouse mIMCD3 cells, read-out: IC50 of inhibition of mouse CFTR); 0.108 µM in assay [3] (read-out: IC50 value (resulting from pIC50) (converted)). In addition, in assay [3] (vs DMSO control), the “reduction of channel activity” value was determined as 54%. For the same compound, the “current after incubation (Ieq)” value in assay [3] (24 h treatment) is 6.6 μA/cm^2.

What is called EC50 is the concentration needed to bring the measured effect to its halfway point. The IC50 is the midpoint of a concentration-inhibition curve.

(Values after patent US12383544B2, “Methods for the treatment of polycystic kidney disease” (Galapagos NV, priority 2019, dated 2025).)
